From US5473039A, “Polypeptide analogs of apolipoprotein E, diagnostic systems and methods using the analogs” (The Scripps Research Institute, priority 1991, dated 1995)

Tests used:
[1] = system: Human peripheral blood mononuclear (PBM) cells; experiment: PHA-stimulated lymphocyte proliferation (3H-thymidine uptake); type: cell-based; details: Example 17
Description: A lymphocyte cell culture system was used to examine the ability of various polypeptides and conjugates to mimic the ability of Apo E to inhibit lymphocyte differentiation as evidence by proliferation.
Human peripheral blood mononuclear (PBM) cells are isolated from whole blood on a Ficoll-Hypaque gradient. The collected PBMs are washed three times with fresh medium (RPMI-1640 plus 5% fetal bovine serum, glutamine, penicillin, streptomycin and HEPES buffer). After washing, the cells are counted and set at a density of 1×10^5 /ml. For culture, 0.2 ml of the cells are plated per well of a 96-well microtiter plate. The peptide or conjugate is added to the wells in a 50 ul volume that can be either filter or UV sterilized. The typical timing for this experiment is to expose the cells to the Apo E polypeptide or self-conjugate over night. PHA, the mitogen that stimulates lymphocyte growth and proliferation, is added the next day. Forty-eight hours after the addition of PHA, 1 uCi of ^3 H-thymidine is added per well in a 1 ul volume and 18-24 hours later the cells are harvested on a mash. The mash cell harvester functions to collect the cells on filter paper where they are washed with buffer to remove free ^3 H-thymidine. The filter papers are dried, put into scintillation vials with scintillation cocktail and the B emissions obtained. Each data point collected represents the average thymidine uptake in four wells, and the standard error was less than 10% for all data points.
Various concentrations of various Apo E peptide were added to cultures that contained 8×10^5 peripheral blood mononuclear cells per ml. The cells were cultured at 37C and RPMI with 5% serum. All cells were exposed to PHA at 24 hours, labeled with 3H-thymidine at 72 hours and harvested at 90 hours. The counts per minute (cpm) of 3H-thymidine in the harvested cells was measured, and the data are expressed as the mean of four wells per treatment as a measure of thymidine uptake (x 1000 cpm). The standard deviation was less than 10% for all means.

[2] = system: scavenger receptor; experiment: 125I-aLDL degradation by PMA-stimulated THP-1 cells; type: cell-based, human
Description: To verify that the inhibition of LDL degradation was specific for the LDL receptor, the effect of the tandem peptide on scavenger receptor processing of acetylated LDL (aLDL) was tested.
THP-1 cells (5×10^5 in 1.0ml of DMEM medium per 16 mm culture dish) were stimulated with PMA (10^-7 M) for 4 days. LDL was acetylated (Hara, H. et al., Biochem. Biophys. Res. Comm., 146(2):802-808, 1987) and then radio-labeled as described in Example 8 to a specific activity of 300-500 cpm/ng resulting in ^125 I-aLDL that was greater than 99% precipitable by 10% TCA. The cells were washed with PBS and the assay performed in DMEM medium supplemented with 1% Nutridoma-HU plus 25 μg/ml of ^125 I-aLDL. After 5 hr at 37° C., the supernatants were removed from the wells and extracted with 10% TCA. The B/B0 ratios were analyzed as described above. The results are depicted in FIG. 1B.

[3] = system: Human peripheral blood mononuclear (PBM) cells; experiment: PHA-stimulated PBM cell proliferation in serum-free CFBI medium; type: cell-based
Description: In these studies, human peripheral blood mononuclear (PBM) cells were isolated and assayed for phytohemagglutinin (PHA)-stimulated proliferation as described by Pepe et al (J. Immunol., 136:3716-3723, 1986) except that the cells were resuspended and cultured in a serum-free and protein-free CFBI medium as described by Shive et al, Proc. Natl. Acad. Sci. […] After 48 h the cultures were pulsed for 18 h with […] of [^3 H]-methylthymidine and harvested onto glass fiber filters. Radioactivity of the filters was counted in a Beckman liquid scintillation counter. […] The average biological activity of each polypeptide for inhibiting lymphocyte […] proliferation is shown in Table 6, and is expressed as an average specific activity, which is the peptide concentration that causes a 50% reduction in activity.

[4] = system: ovarian theca/interstitial cells; experiment: ovarian androgen (androstenedione) production, LH-stimulated cultures; type: cell-based, rats; details: 48 hours
Description: The cell system used to examine the effect of various peptides and conjugates on ovarian androgen production was that described by Curtiss et al., J. Biol. Chem., 263:10965, (1988). Briefly, hypophysectomized (pituitary removed) immature female rats are sacrificed by cervical dislocation. The ovaries taken from the rats were trimmed free of fat and other non-ovarian tissues, cut into approximately six to eight pieces per ovary and dissociated in a solution of collagenase Dnaase which degrades the connective tissue releasing cell clusters. Approximately one to two hours of 37C incubation is required to dissociate the tissue. The cells were washed three times with fresh McCoy's 5A modified medium supplemented with glutamine and penicillin/streptomycin. No serum was added to this medium. The cells were cultured over night in 10 ml of medium in a T-25 flask to allow the non-steroidogenic cells to adhere. The next day non-adherent cells were recovered, washed three times with fresh media, counted and plated at a density of 1×10^3/ ml aliquotting 0.2 ml per well of a 96-well microtiter plate. All media in the experiment contains luteinizing hormone (LH) at 4 ng/ml and human high density lipoprotein (HDL) at 300 μg protein/mi. Monomeric peptides, peptide-BSA conjugates and self-conjugated peptide preparations at various concentrations (0.2 to 50 μg/ml) were added to the cells. The cells were then cultured for 48 hours at 37C, the supernatants were recovered, transferred to a clean 96-well microtiter plate and kept at -20C until the concentrations of androstenedione and progesterone were measured by radioimmunoassay. Each data point represents the average of measured androstenedione concentrations in four wells per treatment, and the standard error was less than 10% for all data points.
The ability of tandem Apo E peptide p(141-155)2 and self-conjugates of this peptide to affect ovarian androgen production was examined using the assay described in Example 4. […] After 48 hours of culture, the supernatants were collected, the androstenedione concentration measured by radioimmunoassay. […]

CC(C)C[C@H](NC(=O)[C@H](CC(=O)O)NC(=O)[C@H](CC(=O)O)NC(=O)[C@H](C)NC(=O)[C@H](CC(=O)O)NC(=O)[C@H](CCCNC(=N)N)NC(=O)[C@H](CC(C)C)NC(=O)[C@H](CC(C)C)NC(=O)[C@H](CCCNC(=N)N)NC(=O)[C@H](CCCCN)NC(=O)[C@H](CCCNC(=N)N)NC(=O)[C@H](CC(C)C)NC(=O)[C@H](CCCCN)NC(=O)[C@H](CCCNC(=N)N)NC(=O)[C@H](CC(C)C)NC(=O)[C@H](CC(C)C)NC(=O)[C@H](CC(=O)O)NC(=O)[C@H](CC(=O)O)NC(=O)[C@H](C)NC(=O)[C@H](CC(=O)O)NC(=O)[C@H](CCCNC(=N)N)NC(=O)[C@H](CC(C)C)NC(=O)[C@H](CC(C)C)NC(=O)[C@H](CCCNC(=N)N)NC(=O)[C@H](CCCCN)NC(=O)[C@H](CCCNC(=N)N)NC(=O)[C@H](CC(C)C)NC(=O)[C@H](CCCCN)NC(=O)[C@H](CCCNC(=N)N)NC(=O)[C@@H](N)CC(C)C)C(=O)O [p(141-155)2]
ED50 or dose of peptide required to inhibit lymphocyte proliferation 50% [1]: 20 µM | effect on 125I-aLDL degradation ([2]; listed as tandem apo E peptide): no effect | effect on 125I-aLDL degradation ([2]; listed as tandem peptide): Neither LDL or tandem peptide inhibited | biologic activity (inhibition of lymphocyte proliferation) [3]: loss of biologic activity | peptide concentration above which uptake of tritiated thymidine / lymphocyte proliferation was inhibited [3]: above 4 uM | IC50 ([3]; read-out: Average Specific Activity (peptide concentration that causes a 50% reduction in activity)): 4.8 ± 1.1 µM | concentrations at which androstenedione production was enhanced [4]: less than 0.04 μg/ml | concentrations that inhibited androstenedione production ([4]; dose-dependent): 0.2 to 2 µg/mL
